The test system of the data set is rodent carcinogenicity bioassays, tumor incidence. Kind of data set: CCRIS carcinogenicity studies. A digest of the protocol:
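NCI-built, expert-reviewed records of carcinogenicity and related test outcomes (mutagenicity, tumor promotion/inhibition) compiled from published and report sources, historical span 1985-2011, not updated.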

Activity calls are given as the source filed them. The rule behind the calls is not given here.

Take `C1OC1C1CO1` (configuration not stated): the carcinogen call is, setting by setting: (Species: MOUSE, Route: DERMAL, Tumor Site: Type of Lesion: INTEGUMENTARY SYSTEM (SKIN)) “active; positive”; (Species: MOUSE, Route: INTRAPERITONEAL, Tumor Site: Type of Lesion: LUNG) “active; positive”; (Species: MOUSE, Route: SUBCUTANEOUS, Tumor Site: Type of Lesion: INJECTION SITE) “active; positive”; (Species: MOUSE, Strain/Sex: B6C3F1/FEMALE, Route: INHALATION, Dose: 0, 2.5, 5.0 PPM 6 HR/D 5 D/WK FOR 6 WK (STUDY DURATION: 18 MONTHS), Dose: 0, 2.5, 5.0 PPM 6 HR/D 5 D/WK FOR 6 WK (STUDY DURATION: 18 MONTHS), Tumor Site: Type of Lesion: HARDERIAN GLAND: TUMOR) “active; positive”; (Species: RAT, Route: SUBCUTANEOUS, Tumor Site: Type of Lesion: INJECTION SITE) “active; positive”; (Species: RAT, Strain/Sex: SPRAGUE-DAWLEY/FEMALE, Route: INHALATION, Dose: 0, 2.5, 5.0 PPM 6 HR/D 5 D/WK FOR 6 WK (STUDY DURATION: 18 MONTHS), Dose: 0, 2.5, 5.0 PPM 6 HR/D 5 D/WK FOR 6 WK (STUDY DURATION: 18 MONTHS), Tumor Site: Type of Lesion: NASAL MUCOSA: TUMOR) “active; positive”.
Consider `O=[N+]([O-])c1cc2ccc3cc4ccccc4c4ccc(c1)c2c34`, for which the carcinogen call (Species: MOUSE, Strain/Sex: B6C3F1/MALE, Route: INTRAPERITONEAL, Dose: 0, 400 NMOL IN 35 µL DMSO ON DAYS 1 (1/7 TOTAL DOSE), 8 (2/7 TOTAL DOSE), AND 15 (4/7 TOTAL DOSE) AFTER BIRTH (STUDY DUR, Tumor Site: Type of Lesion: LIVER: ADENOMA OR CARCINOMA) is “active; positive”.
As to `OCCCl`, the carcinogen call reads like this: (Species: MOUSE, Strain/Sex: CD-1/FEMALE, Route: DERMAL, Dose: 0, 7.5, 15 MG/ANIMAL IN 70% ETHANOL IN WATER 5 D/WK FOR 104 WK, Dose: 0, 7.5, 15 MG/ANIMAL IN 70% ETHANOL IN WATER 5 D/WK FOR 104 WK) “inactive; negative”; (Species: MOUSE, Strain/Sex: CD-1/MALE, Route: DERMAL, Dose: 0, 7.5, 15 MG/ANIMAL IN 70% ETHANOL IN WATER 5 D/WK FOR 104 WK, Dose: 0, 7.5, 15 MG/ANIMAL IN 70% ETHANOL IN WATER 5 D/WK FOR 104 WK) “inactive; negative”; (Species: RAT, Strain/Sex: F344/FEMALE, Route: DERMAL, Dose: 0, 50, 100 MG/KG IN 70% ETHANOL IN WATER 5 D/WK FOR 103 WK, Dose: 0, 50, 100 MG/KG IN 70% ETHANOL IN WATER 5 D/WK FOR 103 WK) “inactive; negative”; (Species: RAT, Strain/Sex: F344/MALE, Route: DERMAL, Dose: 0, 50, 100 MG/KG IN 70% ETHANOL IN WATER 5 D/WK FOR 103 WK, Dose: 0, 50, 100 MG/KG IN 70% ETHANOL IN WATER 5 D/WK FOR 103 WK) “inactive; negative”.
Consider `COc1cccc2c1C(=O)c1c(O)c3c(c(O)c1C2=O)C[C@@](O)(C(C)=O)C[C@@H]3O[C@H]1C[C@H](N)[C@H](O)[C@H](C)O1`, for which the carcinogen call (Species: RAT, Strain/Sex: SPRAGUE-DAWLEY/FEMALE, Route: INTRAVENOUS, Dose: 0, 10 MG/KG IN SALINE ONCE (STUDY DURATION: 244 D) (STUDY DURATION: 244 D), Tumor Site: Type of Lesion: MAMMARY GLAND: TUMOR) is “active; positive”; the carcinogen call (Species: RAT, Strain/Sex: SPRAGUE-DAWLEY/FEMALE, Route: INTRAVENOUS, Dose: 0, 10 MG/KG IN SALINE SOLUTION ONCE (STUDY DURATION: 1 YR), Tumor Site: Type of Lesion: MAMMARY GLAND: ADENOCARCINOMA) was “active; positive”; the carcinogen call (Species: RAT, Strain/Sex: SPRAGUE-DAWLEY/FEMALE, Route: SUBCUTANEOUS, Dose: 0, 2, 4, 8 UG IN 100 µL SALINE INTO THORACIC AND ABDOMINAL MAMMARY GLANDS ONCE (STUDY DURATION: 6.5 MO), Dose: 0, 2, 4, 8 UG IN 100 µL SALINE INTO THORACIC AND ABDOMINAL MAMMARY GLANDS ONCE (STUDY DURATION: 6.5 MO), Tumor Site: Type of Lesion: MAMMARY GLAND: TUMOR) is “active; positive”; the carcinogen call (Species: RAT, Strain/Sex: SPRAGUE-DAWLEY/MALE, Route: INTRAVENOUS, Dose: 0, 10 MG/KG IN SALINE SOLUTION ONCE (STUDY DURATION: 1 YR), Tumor Site: Type of Lesion: MAMMARY GLAND: ADENOCARCINOMA) was “active; positive”.
For `CCOC(=O)c1ccccc1C(=O)OCC`, the carcinogen call is, setting by setting: (Species: MOUSE, Strain/Sex: B6C3F1/FEMALE, Route: DERMAL, Dose: 0, 7.5, 15, 30 µL/100 µL IN ACETONE 5 D/WK FOR 104-105 WK (STUDY DURATION: 104-105 WK), Dose: 0, 7.5, 15, 30 µL/100 µL IN ACETONE 5 D/WK FOR 104-105 WK (STUDY DURATION: 104-105 WK), Tumor Site: Type of Lesion: LIVER: HEPATOCELLULAR ADENOMA, HEPATOCELLULAR ADENOMA OR CARCINOMA) “equivocal”; (Species: MOUSE, Strain/Sex: B6C3F1/MALE, Route: DERMAL, Dose: 0, 7.5, 15, 30 µL/100 µL IN ACETONE 5 D/WK FOR 104-105 WK (STUDY DURATION: 104-105 WK), Dose: 0, 7.5, 15, 30 µL/100 µL IN ACETONE 5 D/WK FOR 104-105 WK (STUDY DURATION: 104-105 WK), Tumor Site: Type of Lesion: LIVER: HEPATOCELLULAR ADENOMA, HEPATOCELLULAR ADENOMA OR CARCINOMA) “equivocal”; (Species: RAT, Strain/Sex: F344/FEMALE, Route: DERMAL, Dose: 0, 100, 300 µL IN ACETONE 5 D/WK FOR 104 WK (STUDY DURATION: 104 WK), Dose: 0, 100, 300 µL IN ACETONE 5 D/WK FOR 104 WK (STUDY DURATION: 104 WK)) “inactive; negative”; (Species: RAT, Strain/Sex: F344/MALE, Route: DERMAL, Dose: 0, 100, 300 µL IN ACETONE 5 D/WK FOR 104 WK (STUDY DURATION: 104 WK), Dose: 0, 100, 300 µL IN ACETONE 5 D/WK FOR 104 WK (STUDY DURATION: 104 WK)) “inactive; negative”.
In the case of `[O]=[Mo](=[O])=[O]`, the carcinogen call runs as follows: (Species: MOUSE, Strain/Sex: B6C3F1/FEMALE, Route: INHALATION, Dose: 0, 10, 30, 100 MG/M3 6 HR/D 5 D/WK FOR 105 WK (STUDY DURATION: 105 WK), Dose: 0, 10, 30, 100 MG/M3 6 HR/D 5 D/WK FOR 105 WK (STUDY DURATION: 105 WK), Tumor Site: Type of Lesion: LUNG: ALVEOLAR/BRONCHIOLAR ADENOMA, ALVEOLAR/BRONCHIOLAR ADENOMA OR CARCINOMA) “active; positive”; (Species: MOUSE, Strain/Sex: B6C3F1/MALE, Route: INHALATION, Dose: 0, 10, 30, 100 MG/M3 6 HR/D 5 D/WK FOR 105 WK (STUDY DURATION: 105 WK), Dose: 0, 10, 30, 100 MG/M3 6 HR/D 5 D/WK FOR 105 WK (STUDY DURATION: 105 WK), Tumor Site: Type of Lesion: LUNG: ALVEOLAR/BRONCHIOLAR CARCINOMA) “active; positive”; (Species: RAT, Strain/Sex: F344/FEMALE, Route: INHALATION, Dose: 0, 10, 30, 100 MG/M3 6 HR/D 5 D/WK FOR 106 WK (STUDY DURATION: 106 WK), Dose: 0, 10, 30, 100 MG/M3 6 HR/D 5 D/WK FOR 106 WK (STUDY DURATION: 106 WK)) “inactive; negative”; (Species: RAT, Strain/Sex: F344/MALE, Route: INHALATION, Dose: 0, 10, 30, 100 MG/M3 6 HR/D 5 D/WK FOR 106 WK (STUDY DURATION: 106 WK), Dose: 0, 10, 30, 100 MG/M3 6 HR/D 5 D/WK FOR 106 WK (STUDY DURATION: 106 WK), Tumor Site: Type of Lesion: LUNG: ALVEOLAR/BRONCHIOLAR ADENOMA, ALVEOLAR/BRONCHIOLAR CARCINOMA, ALVEOLAR/BRONCHIOLAR ADENOMA OR CARCINOMA) “equivocal”.
For the compound `CCN(CC)C(=O)/C(Cl)=C(\C)OP(=O)(OC)OC`, the carcinogen call (Species: MOUSE, Strain/Sex: B6C3F1/FEMALE, Route: ORAL, Dose: 0, 80, 160 PPM IN DIET, Dose: 0, 80, 160 PPM IN DIET) is “inactive; negative”; the carcinogen call (Species: MOUSE, Strain/Sex: B6C3F1/MALE, Route: ORAL, Dose: 0, 80, 160 PPM IN DIET, Dose: 0, 80, 160 PPM IN DIET) was “inactive; negative”; the carcinogen call (Species: RAT, Strain/Sex: OSBORNE-MENDEL/FEMALE, Route: ORAL, Dose: 0, 80, 160 PPM IN DIET FOR 80 WK (STUDY DURATION: 111 WK), Dose: 0, 80, 160 PPM IN DIET FOR 80 WK (STUDY DURATION: 111 WK), Tumor Site: Type of Lesion: THYROID GLAND: C-CELL ADENOMA OR CARCINOMA) is recorded as “equivocal”; the carcinogen call (Species: RAT, Strain/Sex: OSBORNE-MENDEL/MALE, Route: ORAL, Dose: 0, 80, 160 PPM IN DIET FOR 80 WK (STUDY DURATION: 111 WK), Dose: 0, 80, 160 PPM IN DIET FOR 80 WK (STUDY DURATION: 111 WK), Tumor Site: Type of Lesion: SPLEEN: HEMANGIOMA OR HEMANGIOSARCOMA) was “equivocal”.

The values are drawn from PubChem BioAssay AID1259411 (Chemical Carcinogenesis Research Information System (CCRIS), 2018).
